Test results: publication PMC8318231, “Rate-of-Kill (RoK) assays to triage large compound sets for Chagas disease drug discovery: Application to GSK Chagas Box” (PLoS Neglected Tropical Diseases, 2021)

How the values were obtained:
[1] = test system: T. cruzi Tulahuen trypomastigotes; assay: T. cruzi trypomastigote assay (Cell Titer-Glo viability, ATP luminescence); format: cell-based, Trypanosoma cruzi; conditions: for Trypomastigotes pIC50 48 hours: 48 hours incubation; for Trypomastigotes pIC50 48 hours / Trypomastigotes pIC50 72 hours: pIC50 = -log10 IC50 in molar units; for Trypomastigotes pIC50 72 hours: 72 hours incubation; for 48 pIC50 / 72 pIC50: trypomastigote assay; for 48 pIC50: 48 h; for 72 pIC50: 72 h
Description: T. cruzi Tulahuen trypomastigotes obtained from the supernatants of LLC-MK2 infected cultures in a 225 cm^2 T-Flasks harvested between days 5 and 8 of infection. Trypomastigotes (5 × 10^4 per well) in 50 μl of DMEM/ 2% FBS were dispensed into white 384 plates (Greiner) pre-stamped with 250 nl compound a single-shot final concentration of 5 μM, or in dose response. […] Cell Titer-Glo cell viability solution (Promega) was added to each well (50 μL) incubated at room temperature for 10 min and luminescence read by Envision plate reader (Perkin Elmer). This assay quantifies the amount of ATP present which is directly proportional to the number of metabolically active cells. All data were normalised (100% effect control for no cells and 0% effect control for DMSO). This assay was adapted from MacLean et al., 2018 [22].

TcCYP51 = conditions: formerly reported; cited from earlier work

SMILES	Trypomastigotes pIC50 48 hours [1]	Trypomastigotes pIC50 72 hours [1]	CYP51 pIC50 (TcCYP51)	48 pIC50 ([1]; figure 1A)	72 pIC50 ([1]; figure 1A)	72 pIC50 ([1]; figure 1B)
Cc1ccc2sc(NC(=O)Cn3cnc([N+](=O)[O-])n3)nc2c1 [TCMDC-143284]	5.6	5.3	< 4			
Cc1cc(C)c(C#N)c(SCC(=O)c2ccc3c(c2)OCO3)n1 [TCMDC-143625]	5.7	5.5	< 4			
O=C(NCc1ccc(-n2cccc2)cc1)c1nc(Cn2ccc([N+](=O)[O-])n2)no1 [TCMDC-143103]	6	5.9	< 4			
Cc1ccccc1OCC(=O)N1CCCN(c2cccnn2)CC1 [TCMDC-143495]	< 4.3	< 4.3	7.1	< 4.3	< 4.3	< 4.3
CC1(Oc2cncc(Cl)c2)CCN(Cc2cc3ccccc3[nH]2)C1 (stereo not drawn) [TCMDC-143162]	5.6	6.1	5			
CC1(C)CCC(=Cc2ccc(Cl)cc2)CC1(O)Cn1ccnc1 (stereo not drawn) [TCMDC-125222]	5.1	4.8	7.3			
N#Cc1ccc(S(=O)(=O)N2CCN(Cc3cccc(-c4ccncc4)c3)CC2)cc1 [TCMDC-143620]	4.4	< 4.3	7.1			
O=C(NCC1CCCCC1)c1cnns1 [TCMDC-143612]	4.7	4.9	< 4			
CN(Cc1cccnc1)Cc1ccc(N2CCN(C(=O)C3(c4ccc(Cl)cc4)CC3)CC2)nc1 [TCMDC-143247]	5.1	4.4	6.8			
O=C(Cn1cnc2cc([N+](=O)[O-])ccc2c1=O)NCCc1ccc(Cl)cc1Cl [TCMDC-143519]	5.9	6.1	< 4			
N#Cc1cccc(CN2CCC(c3nc(-c4ccc(C(F)(F)F)nc4)no3)CC2)c1 [TCMDC-143179]	< 4.3	< 4.3	< 4	< 4.3	< 4.3	< 4.3
Cc1ccc(NC(=O)c2ccc(Cl)c(NC(=O)c3ccc([N+](=O)[O-])cc3)c2)cc1 [TCMDC-143150]	5.8	5.6	< 4			
O=S(=O)(c1ccccc1C(F)(F)F)N1CCN(Cc2ccc(-n3ccnc3)cc2)CC1 [TCMDC-143161]	< 4.3	< 4.3	7	< 4.3	< 4.3	< 4.3
c1cc(-c2ncc(-c3ccn[nH]3)s2)ccn1 [TCMDC-143461]	< 4.3	< 4.3	7.4	< 4.3	< 4.3	< 4.3
CC(Cn1ccnc1)NC(=O)C1CC1c1cccc(Cl)c1Cl (stereo not drawn) [TCMDC-143506]	< 4.3	< 4.3	6.9	< 4.3	< 4.3	< 4.3
Cc1cc2ncn(-c3ccc([N+](=O)[O-])cc3C#N)c2cc1C [TCMDC-143546]	5.7	5.9	< 4			
N#Cc1cc([N+](=O)[O-])ccc1NC1CCCCCC1 [TCMDC-143143]	< 4.3	< 4.3	< 4	< 4.3	< 4.3	< 4.3

SMILES	Trypomastigotes pIC50 48 hours [1]	Trypomastigotes pIC50 72 hours [1]	CYP51 pIC50 (TcCYP51)	48 pIC50 ([1]; figure 1A)	72 pIC50 ([1]; figure 1A)	72 pIC50 ([1]; figure 1B)
O=c1[nH]c(C=Cc2cccc(OCCOc3ccccc3)c2)nc(O)c1[N+](=O)[O-] [TCMDC-143209]	< 4.3	< 4.3	< 4	< 4.3	< 4.3	< 4.3
CN(Cc1nc2ccccc2s1)C(=O)C=Cc1cc2ccccc2o1 [TCMDC-143354]	4.4	< 4.3	6.8			
O=C(Nc1cccc(Cl)c1)N1CCCCC1c1cccnc1 (stereo not drawn) [TCMDC-143529]	< 4.3	< 4.3	7.7	< 4.3	< 4.3	< 4.3
COc1cccc(-c2cc(C(F)(F)F)nc(-n3ccc([N+](=O)[O-])n3)n2)c1 [TCMDC-143105]	5.8	6	< 4			
Cn1c(CN2CCN(c3ncc(C(F)(F)F)cc3Cl)CC2)nc2ccncc21 [TCMDC-143276]	< 4.3	< 4.3	7.1	< 4.3	< 4.3	< 4.3
c1cncc(CN(Cc2ccco2)Cc2cn[nH]c2-c2cccs2)c1 [TCMDC-143440]	4.4	< 4.3	7.1			
Cc1cc(N(C)C)nc2ccc(Cc3cnc(N)nc3N)cc12 [TCMDC-143611]	4.6	5.9	< 4			
Cc1cc(C)nc(N2CCC(N(Cc3cccnc3)C(=O)c3cccc(C#N)c3)CC2)n1 [TCMDC-143272]	< 4.3	< 4.3	6.9	< 4.3	< 4.3	< 4.3
Cc1c(CNC(=O)c2ccc(Cn3cc(Cl)c([N+](=O)[O-])n3)cc2)cnn1C [TCMDC-143153]	4.7	5.3	< 4			
O=C(NCc1nnc2n1CCCCC2)c1ccc(-c2ccc(F)cc2)o1 [TCMDC-143446]	< 4.3	4.7	4.1			
CN(C)CCN(C)Cc1ccc(F)cc1NS(=O)(=O)c1ccc(Cl)c(Cl)c1 [TCMDC-143118]	5.9	5.9	< 4	5.9	5.9	5.9
CN(C)c1ncc(-c2cncn2CCOc2ccc(Cl)cc2)cn1 [TCMDC-143415]	4.5	4.5	7.3	4.5	4.5	4.5
Cc1nn(C2CCS(=O)(=O)C2)c(C)c1CN(C)C(=O)C=Cc1sc2ccccc2c1Cl (stereo not drawn) [TCMDC-143258]	4.4	4.7	7.5			
CC(C)(C)C(O)(CCc1ccc(Cl)cc1)Cn1cncn1 (stereo not drawn) [TCMDC-143614]	< 4.3	< 4.3	6.9	< 4.3	< 4.3	< 4.3
Cc1ccc(S(=O)(=O)Cn2nnnc2C(c2cccnc2)N2CCN(c3ccccc3)CC2)cc1 (stereo not drawn) [TCMDC-143539]	< 4.3	< 4.3	6.7	< 4.3	< 4.3	< 4.3
CN(C)c1ccc(-c2cc3nccnc3c(OC[C@H]3CCCNC3)n2)cn1.Cl [TCMDC-143408]	4.5	5.2	< 4			
CC(Cn1ccnc1)NC(=O)C=Cc1ccc(Cl)cc1 (stereo not drawn) [TCMDC-143423]	< 4.3	< 4.3	6.8	< 4.3	< 4.3	< 4.3
